Tests used:
in vitro = conditions: human, Caco-2, pH 7.4
How it was run: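 Compounds at 10 μM in HBSS pH 7.4 (0.1–0.3% DMSO) were dosed on Caco-2 monolayers, apical-to-basolateral and basolateral-to-apical, for 90 min at 37 °C, in duplicate. Monolayer integrity was checked by TEER and lucifer yellow flux, read by fluorescence at 485/535 nm. Compound was quantified by LC-MS/MS and Papp calculated.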

[1] = molecular target: CXCR-4 transfected U87 cell line (U87.CXCR4) (Homo sapiens (Human), UniProt P61073); experiment: Intracellular CXCL-12-induced calcium mobilization assay (FLIPR); assay type: cell-based; conditions: U87.CXCR4 cells, CXCL-12 25-50 ng/mL; read-out: IC50 CXCL-12 Ca2+ flux U87.CXCR4+
How it was run: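 U87.CXCR4 cells were seeded at 20,000 per well, cultured 12 hours, then loaded with 4 μM Fluo-2 AM for 45 min at 37° C. in HBSS with 20 mM HEPES and 0.2% BSA, pH 7.4. Calcium flux triggered by CXCL-12 (25-50 ng/mL) was tracked over time by FLIPR fluorescence at 37° C.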

[2] = molecular target: Jurkat cells expressing CXCR4 (Homo sapiens (Human), UniProt P61073); experiment: Chemokine (CXCL12-AF647) binding inhibition assay; conditions: CXCL12-AF647 25 ng/mL, read-out: IC50 CXCL-12 binding Jurkat
How it was run: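 Cells in HBSS, 20 mM HEPES, 0.2% BSA, pH 7.4, preincubated 15 min at room temperature with compound, then 25 ng/mL CXCL12-AF647 for 30 min. After washing and paraformaldehyde fixation, bound ligand read by flow cytometry; percent inhibition calculated from MFI relative to unlabeled and ligand-only controls.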

CXCR-4 transfected U87 cell line (U87.CXCR4), sequence (P61073 whole entry): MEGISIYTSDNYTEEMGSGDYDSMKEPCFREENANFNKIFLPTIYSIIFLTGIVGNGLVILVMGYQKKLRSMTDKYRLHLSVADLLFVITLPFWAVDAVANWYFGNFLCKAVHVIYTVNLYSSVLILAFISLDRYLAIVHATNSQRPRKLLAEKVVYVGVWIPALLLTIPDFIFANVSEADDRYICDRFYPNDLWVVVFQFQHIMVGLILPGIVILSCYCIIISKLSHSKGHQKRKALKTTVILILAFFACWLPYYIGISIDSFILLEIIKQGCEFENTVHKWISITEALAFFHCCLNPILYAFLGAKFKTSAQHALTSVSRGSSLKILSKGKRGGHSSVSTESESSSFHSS
Jurkat cells expressing CXCR4, sequence (P61073 whole entry): as above

| Papp A→B at 90 min, 10 μM (in vitro) [×10⁻⁶ cm/s] | Papp B→A at 90 min, 10 μM (in vitro) [×10⁻⁶ cm/s] | efflux ratio at 90 min, 10 μM (in vitro) | IC50 [1] [nM] | IC50 [2] [nM] | SMILES |
| --- | --- | --- | --- | --- | --- |
| 10 to 30 | 10 to 30 | 0.1 to 10 | ≥ 1000 | ≥ 1000 | Cc1cccnc1[C@@H]1CCC[C@H](c2nc3ccccn3c2-c2cccnc2)N1 [Compound I-208] |
| 0.1 to 10 | 0.1 to 10 | 0.1 to 10 | 0.01 to 100 | 0.01 to 100 | C#Cc1c([C@H]2CCC[C@@H](c3ncccc3C)N2C)nc2cccc(N3CCN(C)CC3)n12 [Compound I-89] |
| 0.1 to 10 | 0.1 to 10 | 0.1 to 10 | 0.01 to 100 | 0.01 to 100 | Cc1cccnc1[C@@H]1CCC[C@H](c2nc3cccc(N4CCN(C)CC4)n3c2Br)N1C(C)C [Compound I-47] |
| 0.1 to 10 | 10 to 30 | 0.1 to 10 | ≥ 1000 | ≥ 1000 | COc1cccnc1[C@@H]1CCC[C@H](c2nc3cccc(N4CCNC5(CC5)C4)n3c2Cl)N1 [Compound I-175] |
| 0.1 to 10 | 0.1 to 10 | 0.1 to 10 | 0.01 to 100 | 0.01 to 100 | CCN1[C@@H](c2nc3cccc(N4CCN(C)CC4)n3c2Br)CCC[C@H]1c1ncccc1C [Compound I-46] |
| 0.1 to 10 | 10 to 30 | 0.1 to 10 | 0.01 to 100 | 0.01 to 100 | Cc1cccnc1[C@@H]1CCC[C@H](c2cn3c(N4CCN(C)CC4)cccc3n2)N1C [Compound I-1] |
| 0.1 to 10 | 0.1 to 10 | 0.1 to 10 | ≥ 1000 | 100 to 1000 | CCN1[C@@H](c2nc3cccc(N4CCN(C(C)C)CC4)n3c2Br)CCC[C@H]1c1ncccc1C [Compound I-45] |
| 0.1 to 10 | 10 to 30 | 0.1 to 10 | 0.01 to 100 | 0.01 to 100 | CCN1CCN(c2cccc3nc([C@H]4CCC[C@@H](c5ncccc5C)N4C)cn23)CC1 [Compound I-13] |
| 0.1 to 10 | 0.1 to 10 | 0.1 to 10 | 0.01 to 100 | 0.01 to 100 | Cc1cccnc1[C@@H]1CCC[C@H](c2nc3cccc(N4CCN(C(C)C)CC4)n3c2Cl)N1C [Compound I-92] |
| 10 to 30 | 10 to 30 | 0.1 to 10 | 100 to 1000 | 0.01 to 100 | Cc1cccnc1[C@@H]1CCC[C@H](c2cn3c(N4CCN(C5CC5)CC4)cccc3n2)N1C [Compound I-66] |
| 10 to 30 | 10 to 30 | 0.1 to 10 | 0.01 to 100 | 0.01 to 100 | Cc1cccnc1[C@@H]1CCC[C@H](c2cn3ccccc3n2)N1CCc1cnccn1 [Compound I-9] |
| 10 to 30 | > 30 | 0.1 to 10 | ≥ 1000 | ≥ 1000 | Cc1cccnc1[C@H]1CCC[C@@H](c2nc3ccccn3c2-c2ccncc2)N1 [Compound I-207] |
| 0.1 to 10 | 10 to 30 | 0.1 to 10 | 0.01 to 100 | 0.01 to 100 | CN(C)C1CCN(c2cccc3nc([C@H]4CCC[C@@H](c5ncccc5Cl)N4C)cn23)CC1 [Compound I-142] |
| 10 to 30 | 10 to 30 | 0.1 to 10 | 0.01 to 100 | 0.01 to 100 | Cc1cccnc1[C@@H]1CCC[C@H](c2nc3c(N)ccc(N4CCN(C)CC4)n3c2Cl)N1C [Compound I-164] |
| 10 to 30 | 10 to 30 | 0.1 to 10 | ≥ 1000 | 100 to 1000 | CCOCc1c([C@H]2CCC[C@@H](c3ncccc3C)N2C)nc2cccc(N3CCN(C4CC4)CC3)n12 [Compound I-58] |

Second part, the compound before the results:

| SMILES | Papp A→B at 90 min, 10 μM (in vitro) [×10⁻⁶ cm/s] | Papp B→A at 90 min, 10 μM (in vitro) [×10⁻⁶ cm/s] | efflux ratio at 90 min, 10 μM (in vitro) | IC50 [1] [nM] | IC50 [2] [nM] |
| --- | --- | --- | --- | --- | --- |
| Cc1cccnc1[C@@H]1CCC[C@H](c2nc3cccc(N4C5CCC4CN(C)C5)n3c2Cl)N1C [Compound I-138] | 10 to 30 | 10 to 30 | 0.1 to 10 | 0.01 to 100 | 0.01 to 100 |
| Cc1cccnc1[C@@H]1CCC[C@H](c2nc3ccccn3c2COC2CCCN(C)C2)N1C (some centres unmarked) [Compound I-63] | 0.1 to 10 | 10 to 30 | 10 to 30 | 100 to 1000 | 0.01 to 100 |
| Cc1cccnc1[C@@H]1CCC[C@H](c2cn3c(N4C5CCC4CNC5)cccc3n2)N1C [Compound I-110] | 0.1 to 10 | 10 to 30 | > 30 | 0.01 to 100 | 0.01 to 100 |
| CN1C2CCC1CN(c1cccc3nc([C@H]4CCC[C@@H](c5ncccc5Cl)N4C)c(CO)n13)C2 [Compound I-135] | 0.1 to 10 | 10 to 30 | 0.1 to 10 | 0.01 to 100 | 0.01 to 100 |
| CCN1CCN(c2cccc3nc([C@H]4CCC[C@@H](c5ncccc5C(C)C)N4C)c(CO)n23)CC1 [Compound I-75] | 0.1 to 10 | 10 to 30 | 0.1 to 10 | ≥ 1000 | 100 to 1000 |
| CN(C)C1CCN(c2cccc3nc([C@H]4CCC[C@@H](c5ncccc5Cl)N4C)c(CO)n23)CC1 [Compound I-136] | 0.1 to 10 | 10 to 30 | 10 to 30 | 0.01 to 100 | 0.01 to 100 |
| Cc1cccnc1[C@@H]1CCC[C@H](c2cn3c(N4CC5CCC(C4)N5)cccc3n2)N1C [Compound I-109] | 0.1 to 10 | 10 to 30 | > 30 | 100 to 1000 | 0.01 to 100 |
| CN1C2CCC1CN(c1cccc3nc([C@H]4CCC[C@@H](c5ncccc5Cl)N4)cn13)C2 [Compound I-181] | 0.1 to 10 | 10 to 30 | 0.1 to 10 | 0.01 to 100 | 0.01 to 100 |
| Cc1cccnc1[C@@H]1CCC[C@H](c2cn3c(N4C5CCC4CN(C)C5)cccc3n2)N1 [Compound I-186] | 0.1 to 10 | 10 to 30 | 0.1 to 10 | 0.01 to 100 | 0.01 to 100 |
| CCOCc1c([C@H]2CCC[C@@H](c3ncccc3C)N2C)nc2cccc(N3CCN(C)CC3)n12 [Compound I-21] | 0.1 to 10 | 10 to 30 | 0.1 to 10 | 0.01 to 100 | 0.01 to 100 |
| CCOCc1c([C@H]2CCC[C@@H](c3ncccc3C)N2C)nc2cccc(N3CCN(C(C)C)CC3)n12 [Compound I-57] | 0.1 to 10 | 10 to 30 | 0.1 to 10 | 0.01 to 100 | 0.01 to 100 |
| CN1CCN(c2cccc3nc([C@H]4CCC[C@@H](c5ncccc5OC(F)(F)F)N4C)cn23)CC1 [Compound I-81] | 10 to 30 | 10 to 30 | 0.1 to 10 | 100 to 1000 | 0.01 to 100 |
| Cc1cccnc1[C@@H]1CCC[C@H](c2nc3ccccn3c2[C@@H](O)C2CCN(C)CC2)N1C [Compound I-54] | 0.1 to 10 | 0.1 to 10 | > 30 | 0.01 to 100 | 0.01 to 100 |
